Assay results taken from patent US9713613B2, “Methods and compositions for the treatment of cancer and related hyperproliferative disorders” (priority 2007, dated 2017).
“Also recorded” adds a separate entry of the source.

Columns and labels:
mice (129Sv background) = assay: mice, two-week treatment, normal diet; assay type: in vivo, mouse; details: two weeks
Experimental: Food intake was similar between both groups (3.8 and 3.5 g/mouse/day for treated and control mice, respectively).
In the second protocol, two groups of male mice (n=5) were treated daily for two weeks with either 30 mg/kg fatostatin A or 10% DMSO in PBS. Food intake and body weight were measured daily. At the end of the experiments, the mice were briefly fasted for 4-5 hrs, and their blood was withdrawn for determination of serum constituents. The mice were then sacrificed, and their livers were quickly removed and ground to powder in liquid nitrogen. The powdered tissues were suspended in 10 ml of PBS containing 0.1 mM PMSF, 5 mM benzamidine, and 5 mg/mL protease inhibitor cocktail (Roche), homogenized using Polytron (3×30 Sec, at a high speed), and sonicated briefly to degrade DNA. The extracts were clarified by centrifugation at 16,000×g for 20 min. The samples were then subjected to western blot analysis using commercially available antibodies against FAS and SREBP-1. FAS and ACC activities were determined as described earlier (Mao et al., 2006).

ob/ob mice = assay: ob/ob mice, four weeks daily ip treatment; assay type: in vivo
Experimental: The study employed 4-5 week old male ob/ob mice of average weight of about 23 g/mouse. Fatostatin A (30 mg/kg/day) was delivered intraperitoneally daily, and body weight and food intake were measured. […] At the end of first week of treatment ob control mice injected with DMSO gained on average of 4.82 g/mouse (from 23.58±0.62 to 28.40±1.45), whereas the fatostatin treated group gained about 3.37 g/mouse (23.08±1.53 to 26.45±1.2 g/mouse), (p=0.03). After 28 days of treatment the fatostatin A treated group weighed about 12% less than the controls weeks (32.1±1.4 compared to 36.2±2.2 g/mouse […]) (P=0.02). The accumulative food intake was similar in both groups FIG. 8C).
Four- to 5-week old homozygous male obese (ob/ob) mice (C57BL/6J, The Jackson Laboratory, Bar Harbor, Me.) were housed under controlled conditions (12-hr light/dark cycle; 25° C.). The animals were housed 5 per cage and had ad libitum access to standard laboratory chow (Purina Mills, Richmond Ind.) and water for one week after their arrival. On first day of the experiment and every day thereafter the weight of the mice and the amount of the food consumed were measured. The weight of mice and food remaining were measured daily between 3-5 p.m. before the ip injection of fatostatin A (30 mg/kg; 150 μL). The administration of Fatostatin A or 10% DMSO in PBS to control groups (n=5) continued daily for four weeks till the end of the study.
After 28 days of daily injection of fatostatin A mice were fasted overnight and blood was withdrawn and Whole blood glucose and 3-hydroxybutyrate were measured with a Glucometer Precision Xtra (Abbott). For determination of serum constituents. Glucose, triglyceride and cholesterol measurements were done by the Comparative Pathology Laboratory (Baylor College of Medicine). Serum non-esterified fatty acids (NEFA) were measured by using NEFA C kit (Wako Chemicals, Richmond, Va.).
Mice were sacrificed and weights of livers, and Epididymal fat pads were determined. Frozen sections of Liver slices from individual animals were stained with Oil Red O to visualize the fat droplets (TG) in liver slices as described earlier (Abu-Elheiga et al., 2001). The remaining liver tissues were frozen in liquid nitrogen and kept at −80° C. for further analysis.
Liver triglyceride and cholesterol contents were carried out as described in the reference (Chandler, et al., 2003) using Cholesterol E Kit (Wako) and Infinity Triglyceride Kit (Thermo Electron, Melbourne, Australia), adapted for colorimetric analysis in 96-well plate format.
A portion of the frozen liver was ground to powder in liquid nitrogen. The powdered tissues were suspended in 10 ml of PBS containing 0.1 mM PMSF, 5 mM benzamidine, and 5 mg/ml protease inhibitor cocktail (Roche), and homogenized using Polytron (3×30 Sec, at high speed) and sonicated briefly to degrade DNA. The extracts were clarified by centrifugation at 16,000×g for 20 min. Protein concentrations in the supernatant were determined, and subjected to western blot analysis using commercially available antibodies against the following enzymes: FAS (BD Biosciences), citrate lyase SCD1, FADS1, ACC and phospho-ACC antibodies. The proteins were visualized using Amersham ECL Plus™ Western Blotting Detection Reagents. The intensity of the specific bands of proteins of interest were scanned and normalized against beta-actin for quantifications. FAS and ACC activities from the liver extracts were determined as described earlier (Mao et al., 2006).
Total RNA was prepared from mouse tissues using TRIzol reagent (Invitrogen). Equal amounts of RNA from 5 mice were pooled and treated with DNase I (Turbo DNA-free, Ambion, Inc.). First stranded cDNA was synthesized from 2 μg of DNase I-treated total RNA with random hexamer primer using Superscript II RNase H-reverse transcriptase (Invitrogen). […]

[1] = western blot, normalized to actin

Q: Which “loss of body weight” value (mice (129Sv background); 30 mg/kg daily, normal diet, control no change) does the source give for CCCc1cc(-c2nc(-c3ccc(C)cc3)cs2)ccn1 [Compound 1, 2-propyl-4-(4-p-tolylthiazol-2-yl)pyridine] here?
A: 10%

Q: And the “decrease of FAS activity and its protein level in liver” value (mice (129Sv background); 30 mg/kg daily)?
A: about 30%

Q: And the food intake (mice (129Sv background); control 3.5)?
A: 3.8 g/mouse/day

Q: What about the “toxicity during the treatment” value (ob/ob mice; 30 mg/kg ip daily, four weeks) of the same compound?
A: no obvious toxicity

Q: And the “body weight gain at the end of first week” value (ob/ob mice; 30 mg/kg/day ip, control 4.82)?
A: about 3.37 g/mouse

Q: What about the “body weight at the end of first week” value (ob/ob mice; 30 mg/kg/day ip, from 23.08±1.53) of the same compound?
A: 26.45±1.2 g/mouse

Q: And the “decrease in serum HDL” value (ob/ob mice; 28 days)?
A: about 22%

Q: And the “decrease in serum LDL” value (ob/ob mice; 28 days)?
A: about 35%

Q: What about the “increase of VLDL” value (ob/ob mice; 28 days) of the same compound?
A: about 50%

Q: And the “serum non esterified free fatty acids (NEFA) higher than controls” value (ob/ob mice; 28 days)?
A: about 70%

Q: What about the “serum triglycerides (TG) increase compared to controls” value (ob/ob mice; 28 days) of the same compound?
A: about 30%

Q: What about the “ketone bodies (hydroxy butyrate) increase compared to controls” value (ob/ob mice; 28 days, blood, listed as fatostatin A) of the same compound?
A: increased about seven fold; also recorded: seven fold increase

Q: What about the serum glucose (ob/ob mice; 28 days, fasted mice, control 429.4±87) of the same compound?
A: 153.2 ± 30.5 mg/dL

Q: And the “serum glucose lower than controls” value (ob/ob mice; 28 days, fasted mice, listed as fatostatin)?
A: ~70%

Q: And the “serum glucose lower than controls” value (ob/ob mice; 28 days, fasted mice, listed as fatostatin A)?
A: about 70%

Q: And the “ketone bodies (hydroxy butyrate)” value (ob/ob mice; 28 days, control 0.5±0.37)?
A: 3.62 ± 1.41 mg/dL

Q: What about the “serum NEFA” value (ob/ob mice; 28 days, control 0.7±0.2) of the same compound?
A: 1.93±0.26 mEq/l

Q: And the “serum LDL” value (ob/ob mice; 28 days, control 48±8)?
A: 31±3

Q: And the “serum triglycerides (TG)” value (ob/ob mice; 28 days, control 79±12)?
A: 115±11

Q: What about the “serum HDL” value (ob/ob mice; 28 days, control 183±12) of the same compound?
A: 144±11

Q: And the serum total cholesterol (ob/ob mice; 28 days, control 219±18)?
A: 183 ± 16 mg/dL

Q: And the “body weight less than controls” value (ob/ob mice; after 28 days of treatment)?
A: about 12%

Q: And the body weight (ob/ob mice; after 28 days of treatment, control 36.2±2.2)?
A: 32.1±1.4 g/mouse

Q: What about the food intake (ob/ob mice; average over 28 days, control 5.9±1.4) of the same compound?
A: 5.4±1.5 g/mouse·day

Q: And the VLDL (ob/ob mice; calculated based on TG levels, control 15.8±2.4)?
A: 23.1 ± 2.3 mg/dL

Q: And the “average daily food intake” value (ob/ob mice; control 5.9+1.4)?
A: 5.4+1.5 g/mouse/d

Q: What about the “average weight of epididymal fat pads less than controls” value (ob/ob mice; four weeks) of the same compound?
A: about 20%

Q: What about the “decrease of ACC activity in liver extracts” value (ob/ob mice; four weeks) of the same compound?
A: about 40%

Q: And the “reduction of FAS activity in liver extracts” value (ob/ob mice; four weeks)?
A: more than 70%

Q: And the “reduction of TG levels in livers” value (ob/ob mice; four weeks)?
A: about 65%

Q: What about the “reduction of cholesterol levels in liver” value (ob/ob mice; four weeks) of the same compound?
A: more than 20%

Q: And the “average weight of livers” value (ob/ob mice; four weeks, control 2.34±0.15)?
A: 1.59±0.2

Q: And the “cholesterol levels in liver” value (ob/ob mice; four weeks, control 3.6±0.1)?
A: 2.8±0.5

Q: What about the “average weight of epididymal fat pads” value (ob/ob mice; four weeks, control 3.6±0.2) of the same compound?
A: 2.7±0.1

Q: And the “ACC activity in liver extracts” value (ob/ob mice; four weeks, control 5.55±0.57)?
A: 3.44±0.44 n mol/min·mg

Q: And the “FAS activity in liver extracts” value (ob/ob mice; four weeks, control 22.6±1.37)?
A: 8.64±1.91 n mol/min·mg

Q: And the “TG levels in livers” value (ob/ob mice; four weeks, control 38.7±6.0)?
A: 14.8±3.7 mg/gram liver

Q: And the “average weight of livers less than controls” value (ob/ob mice; four weeks, listed as fatostatin)?
A: ~32%

Q: And the “average weight of livers less than controls” value (ob/ob mice; four weeks, listed as fatostatin A)?
A: about 32%

Q: And the “reduction of PPAR γ mRNA level in liver” value (ob/ob mice; real time PCR)?
A: about 40%

Q: And the “reduction in the mRNA levels of ACC1, FAS and SCD1 in liver” value (ob/ob mice; real time PCR, normalized to actin)?
A: about 80%

Q: And the “protein level of FADS 1 or Δ5 Desaturase in liver” value (ob/ob mice; western blot)?
A: did not change

Q: What about the “reduction of ACL protein level in liver extracts” value (ob/ob mice; [1]) of the same compound?
A: about 70%

Q: What about the “reduction of SCD1 protein level in liver extracts” value (ob/ob mice; [1]) of the same compound?
A: about 50%
